# Data taken from US20250250230A1, “HETEROCYCLIC COMPOUND” (TAKEDA PHARMACEUTICAL COMPANY LIMITED, priority 2022, published 2025).
# Target: T1, human orexin type 2 receptor (Homo sapiens, UniProt O43614)
# T1 construct: expressed in transfected cells
# T1 sequence (O43614 1-444): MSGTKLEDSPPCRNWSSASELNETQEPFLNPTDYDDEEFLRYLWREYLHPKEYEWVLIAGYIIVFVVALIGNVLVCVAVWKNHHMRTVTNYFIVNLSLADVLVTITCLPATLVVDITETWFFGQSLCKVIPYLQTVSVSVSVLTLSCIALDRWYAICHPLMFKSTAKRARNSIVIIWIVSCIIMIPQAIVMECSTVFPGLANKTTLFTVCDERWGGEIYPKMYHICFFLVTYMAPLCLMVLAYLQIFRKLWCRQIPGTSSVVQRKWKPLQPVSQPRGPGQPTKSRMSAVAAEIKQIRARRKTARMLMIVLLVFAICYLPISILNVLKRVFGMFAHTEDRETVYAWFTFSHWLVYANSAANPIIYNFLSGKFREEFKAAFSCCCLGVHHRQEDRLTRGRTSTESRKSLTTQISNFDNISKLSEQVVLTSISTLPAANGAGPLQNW
# Experiment: Measurement of orexin type 2 receptor agonist activity (calcium fluorescence, Fluo-4 AM, FDSS)
# Format: cell-based
# Settings: test compound 3 μM; CHO cells expressing human OX2 receptor; DMSO = 0%, orexin A (human) = 100%
# Outline: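 CHO-K1 cells stably expressing human OX2R were loaded with Fluo-4 AM (30 min 37 °C, 30 min RT) in HEPES-buffered HBSS with 0.1% BSA and probenecid. Calcium fluorescence was followed on FDSS for 2 min after compound addition; activity normalised to DMSO (0%) and 10 nM orexin A (100%).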
row,Compound,"OX2R agonist activity (3 μM, %) [%]"
1,"O=C([C@@H]1C[C@H]1c1ccccc1-c1c(F)cccc1F)N1CCO[C@H](CNS(=O)(=O)N2CCC2)C1 [Example 338, N-({(2S)-4-[(1R,2R)-2-(2′,6′-difluoro[1,1′-biphenyl]-2-yl)cyclopropane-1-carbonyl]morpholin-2-yl}methyl)azetidine-1-sulfonamide]",98
2,"COC[C@@H]1CN(C(=O)[C@@H]2C[C@@]2(F)c2ccccc2-c2c(F)cccc2F)C1CNS(C)(=O)=O (stereo in doubt) [Example 399, N-{[(2R,3R)-1-[(1S,2S)-2-(2′,6′-difluoro[1,1′-biphenyl]-2-yl)-2-fluorocyclopropane-1-carbonyl]-3-(methoxymethyl)azetidin-2-yl]methyl}methanesulfonamide]",95
3,"CCS(=O)(=O)NC[C@@H]1[C@@H](F)CN1C(=O)[C@@H]1C[C@@]1(F)c1ccccc1-c1c(F)cccc1F [Example 414, N-({(2R,3S)-1-[(1S,2S)-2-(2′,6′-difluoro[1,1′-biphenyl]-2-yl)-2-fluorocyclopropane-1-carbonyl]-3-fluoroazetidin-2-yl}methyl)ethanesulfonamide]",101
4,"CS(=O)(=O)NC[C@@H]1CCN1C(=O)C1(CO)CC1c1ccc(F)cc1-c1c(F)cccc1F (stereo partly drawn) [Example 434, N-({(2S)-1-[(1R,2S)-1-(hydroxymethyl)-2-(2′,5,6′-trifluoro[1,1′-biphenyl]-2-yl)cyclopropane-1-carbonyl]azetidin-2-yl}methyl)methanesulfonamide, or N-({(2S)-1-[(1S,2R)-1-(hydroxymethyl)-2-(2′,5,6′-trifluoro[1,1′-biphenyl]-2-yl)cyclopropane-1-carbonyl]azetidin-2-yl}methyl)methanesulfonamide]",96
5,"CS(=O)(=O)NCC1CCN1C(=O)C1CC1c1ccccc1-c1c(F)cccc1F (racemic) [Example 127, a mixture of rac-N-({(2R)-1-[(1R,2R)-2-(2′,6′-difluoro[1,1′-biphenyl]-2-yl)cyclopropane-1-carbonyl]azetidin-2-yl}methyl)methanesulfonamide and rac-N-({(2S)-1-[(1R,2R)-2-(2′,6′-difluoro[1,1′-biphenyl]-2-yl)cyclopropane-1-carbonyl]azetidin-2-yl}methyl)methanesulfonamide]",57
6,"COCC1(C(=O)N2CC[C@H](NS(C)(=O)=O)C2)CC1c1ccccc1-c1c(F)cccc1F (stereo partly drawn) [Example 346, N-{(3S)-1-[(1R,2S)-2-(2′,6′-difluoro[1,1′-biphenyl]-2-yl)-1-(methoxymethyl)cyclopropane-1-carbonyl]pyrrolidin-3-yl}methanesulfonamide, or N-{(3S)-1-[(1S,2R)-2-(2′,6′-difluoro[1,1′-biphenyl]-2-yl)-1-(methoxymethyl)cyclopropane-1-carbonyl]pyrrolidin-3-yl}methanesulfonamide]",100
7,"CS(=O)(=O)NC[C@H]1CCN1C(=O)[C@@H]1C[C@@]1(F)c1ccccc1-c1c(F)cccc1F [Example 371, N-({(2R)-1-[(1S,2S)-2-(2′,6′-difluoro[1,1′-biphenyl]-2-yl)-2-fluorocyclopropane-1-carbonyl]azetidin-2-yl}methyl)methanesulfonamide]",103
8,"CS(=O)(=O)NC1CCN(C(=O)C2CC2c2c(F)cccc2-c2ccccc2Cl)C1 (racemic) [Example 126, a mixture of rac-N-{(3R)-1-[(1R,2R)-2-(2′-chloro-3-fluoro[1,1′-biphenyl]-2-yl)cyclopropane-1-carbonyl]pyrrolidin-3-yl}methanesulfonamide and rac-N-{(3S)-1-[(1R,2R)-2-(2′-chloro-3-fluoro[1,1′-biphenyl]-2-yl)cyclopropane-1-carbonyl]pyrrolidin-3-yl}methanesulfonamide]",89

# Other lines, results leading:
row,"OX2R agonist activity (3 μM, %) [%]",Compound
1,66,"CS(=O)(=O)NC1CCN(C(=O)C2CC2c2ccccc2-c2cc(F)ccc2F)C1 (racemic) [Example 80, a mixture of rac-N-{(3R)-1-[(1R,2R)-2-(2′,5′-difluoro[1,1′-biphenyl]-2-yl)cyclopropane-1-carbonyl]pyrrolidin-3-yl}methanesulfonamide and rac-N-{(3S)-1-[(1R,2R)-2-(2′,5′-difluoro[1,1′-biphenyl]-2-yl)cyclopropane-1-carbonyl]pyrrolidin-3-yl}methanesulfonamide]"
2,103,"CCS(=O)(=O)NC[C@@H]1[C@H](F)CN1C(=O)[C@@H]1C[C@@]1(F)c1ccc(C)cc1-c1c(F)cccc1F [Example 410, N-({(2R,3R)-1-[(1S,2S)-2-(2′,6′-difluoro-5-methyl[1,1′-biphenyl]-2-yl)-2-fluorocyclopropane-1-carbonyl]-3-fluoroazetidin-2-yl}methyl)ethanesulfonamide]"
3,90,"O=C([C@@H]1C[C@@]1(F)c1ccc(F)cc1-c1c(F)cccc1F)N1C[C@@H](F)[C@H]1CNS(=O)(=O)NC1CC1 [Example 447, N-cyclopropyl-N′-({(2R,3R)-3-fluoro-1-[(1S,2S)-2-fluoro-2-(2′,5,6′-trifluoro[1,1′-biphenyl]-2-yl)cyclopropane-1-carbonyl]azetidin-2-yl}methyl)sulfuric diamide]"
4,104,"CN(C)S(=O)(=O)NC1CCCN(C(=O)C2CC2c2ccccc2-c2c(F)cccc2F)C1 (racemic) [Example 164, a mixture of rac-N′-{(3R)-1-[(1R,2R)-2-(2′,6′-difluoro[1,1′-biphenyl]-2-yl)cyclopropane-1-carbonyl]piperidin-3-yl}-N,N-dimethylsulfuric diamide and rac-N′-{(3S)-1-[(1R,2R)-2-(2′,6′-difluoro[1,1′-biphenyl]-2-yl)cyclopropane-1-carbonyl]piperidin-3-yl}-N,N-dimethylsulfuric diamide]"
5,93,"CS(=O)(=O)NC1C2CN(C(=O)[C@@H]3C[C@@]3(F)c3ccccc3-c3c(F)cccc3F)CC2CC1(F)F (stereo partly drawn) [Example 377, N-{(3aR,4S,6aS)-2-[(1S,2S)-2-(2′,6′-difluoro[1,1′-biphenyl]-2-yl)-2-fluorocyclopropane-1-carbonyl]-5,5-difluorooctahydrocyclopenta[c]pyrrol-4-yl}methanesulfonamide, or N-{(3aS,4R,6aR)-2-[(1S,2S)-2-(2′,6′-difluoro[1,1′-biphenyl]-2-yl)-2-fluorocyclopropane-1-carbonyl]-5,5-difluorooctahydrocyclopenta[c]pyrrol-4-yl}methanesulfonamide]"
6,98,"O=C([C@@H]1C[C@@]1(F)c1ccc(F)cc1-c1c(F)cccc1F)N1C[C@@H](F)[C@H]1CNS(=O)(=O)C(F)F [Example 448, 1,1-difluoro-N-({(2R,3R)-3-fluoro-1-[(1S,2S)-2-fluoro-2-(2′,5,6′-trifluoro[1,1′-biphenyl]-2-yl)cyclopropane-1-carbonyl]azetidin-2-yl}methyl)methanesulfonamide]"
7,101,"CS(=O)(=O)NC1(CF)CCN(C(=O)[C@@H]2C[C@H]2c2ccccc2-c2c(F)cccc2F)C1 (stereo partly drawn) [Example 342, N-[(3R)-1-[(1R,2R)-2-(2′,6′-difluoro[1,1′-biphenyl]-2-yl)cyclopropane-1-carbonyl]-3-(fluoromethyl)pyrrolidin-3-yl]methanesulfonamide, or N-[(3S)-1-[(1R,2R)-2-(2′,6′-difluoro[1,1′-biphenyl]-2-yl)cyclopropane-1-carbonyl]-3-(fluoromethyl)pyrrolidin-3-yl]methanesulfonamide]"
8,96,"CC(NS(C)(=O)=O)[C@@H]1[C@H](F)CN1C(=O)[C@@H]1C[C@@]1(F)c1ccccc1-c1c(F)cccc1F (stereo partly drawn) [Example 415, N-[(1R)-1-{(2R,3R)-1-[(1S,2S)-2-(2′,6′-difluoro[1,1′-biphenyl]-2-yl)-2-fluorocyclopropane-1-carbonyl]-3-fluoroazetidin-2-yl}ethyl]methanesulfonamide, or N-[(1S)-1-{(2R,3R)-1-[(1S,2S)-2-(2′,6′-difluoro[1,1′-biphenyl]-2-yl)-2-fluorocyclopropane-1-carbonyl]-3-fluoroazetidin-2-yl}ethyl]methanesulfonamide]"
9,103,"CCS(=O)(=O)NC[C@@H]1[C@H](C)CN1C(=O)[C@@H]1C[C@@]1(F)c1ccccc1-c1c(F)cccc1F [Example 360, N-({(2S,3R)-1-[(1S,2S)-2-(2′,6′-difluoro[1,1′-biphenyl]-2-yl)-2-fluorocyclopropane-1-carbonyl]-3-methylazetidin-2-yl}methyl)ethanesulfonamide]"
10,101,"CS(=O)(=O)NCC1CCN1C(=O)C1CC1c1ccccc1-c1c(F)cccc1F (stereo not drawn) [Example 276, N-({1-[2-(2′,6′-difluoro[1,1′-biphenyl]-2-yl)cyclopropane-1-carbonyl]azetidin-2-yl}methyl)methylsulfonamide optical isomer]"
11,93,"CS(=O)(=O)N[C@H]1CCN(C(=O)C2CC2(F)c2ccccc2-c2c(F)cccc2F)C1 (single isomer, unassigned) [Example 304, N-{(3S)-1-[(1S,2S)-2-(2′,6′-difluoro [1,1′-biphenyl]-2-yl)-2-fluorocyclopropane-1-carbonyl]pyrrolidin-3-yl}methanesulfonamide, or N-{(3S)-1-[(1R,2R)-2-(2′,6′-difluoro[1,1′-biphenyl]-2-yl)-2-fluorocyclopropane-1-carbonyl]pyrrolidin-3-yl}methanesulfonamide]"
